Measurements: patent EP3130339A1, “A COMPOUND FOR USE IN THE TREATMENT OF COMORBID ANXIETY DISORDER AND DEPRESSION DISORDER” (Aché Laboratórios Farmacêuticos S.A., priority 2015, dated 2017)

What was measured:
Type in all cases: in vivo
Mice [1] = test: Sphere hiding test; conditions: for Number of Hidden Spheres (mean ± mean standard error): 25 glass spheres, counted at the end of 30 minutes
Protocol: This test is based on the natural aversive behavior to glass and marble of rodents, where the presence of these objects triggers the action of burying (hiding). In this test, there are potential behavioral changes of medicines that may promote an ansiogenic or anxiolytic profile. This is determined by the increase or decrease of the behavior of hiding glass spheres ("marbles") that are randomly distributed on the surface of a box lined with sawdust. The increase of the number of covered balls is an indicative of anxiety, since it is supposed to represent a foreign agent to the animal, whose presence may pose threat. The administration of anxiolytics medicines decreases the number of spheres buried in non-sedative doses.
The method employed followed the procedure described by Broekkamp et al. (Eur. J. Pharmacol., 1986, 126, 223-229).
Mice were individually placed in transparent plastic cages (33 x 21 x 18 cm), with the floor covered by a 5 cm layer of sawdust and 25 glass spheres grouped in the center of the cage. The cage was covered with a perforated plastic cover. Each test cage, along with the glass spheres, were previously impregnated with "mouse odor", and a group of 10 mice was left inside for 15 minutes.
The number of glass spheres covered with sawdust (2/3 or more of the surface) was counted at the end of the 30 minutes of the test.
Each study group consisted of 12 mice. The test was partially blind (substances tested versus vehicle of the tested substances).
This test aimed at obtaining a comparison profile of response of Compound (A) (3-(2-(-4-(2-methoxyphenyl)piperazin-1-yl) ethyl) quinazolin-4 (3H) -one and Compound (B) (3-(2-(4-(2-cyanophenyl)piperazin-1-yl)ethyl)quinazolin-4(3H)-one) with known compounds that act by different mechanisms. The comparative compounds used were alprazolam (benzodiazepine) and paroxetine (ISRS-type antidepressant). These compounds were tested in the following doses: Table 3: Compounds tested, concentrations employed and route of administration.
Fluoxetine (ISRI antidepressant) was used as the positive control substance in the test, and was administered at 32 mg/kg (i.p.).
Quantitative data for the tested substances (number of glass spheres coated with sawdust) were evaluated by comparison with the treated groups using one-way ANOVA followed by planned comparisons against the appropriate vehicles. Data with fluoxetine were compared to the vehicle control using unpaired Student's t test.

mice (RJ:NMRI, males) = test: Bright/dark box test (clear/dark transition test); conditions: for Time spent in the clear compartment compared to vehicle % / Time spent in the clear compartment (seconds) (mean ± mean standard error): 30 minutes before the test; for Time spent in the clear compartment (seconds) (mean ± mean standard error): three-minute test
Protocol: This model, also known as clear/dark transition test, is characterized as a model of conflict, based on the natural tendency to explore new environments versus avoidance of doing so, due to the potential possibility of the presence of aversive stimuli. It is an animal model based on independent behavior of conditioning, therefore, there is no need of learning. In rodents, this model is grounded in their natural aversion to excessively clear environments. This aversion is measured from the ansiogenic component expressed by lower exposure of the animal to the clear compartment.
The method employed followed the procedure described by Crawley and Goodwin (Pharmacol. Biochem. Behav. 1981, 15, 695-699).
The animals were placed on the clear field of a box comprising two compartments, one being illuminate and open (25 x 27 x 27 cm) and the other being dark and close (20 x 27 x 27 cm). Data on the length of stay in each compartment were collected over the three-minute test.
This test aimed at obtaining a comparison profile of response of Compound (A) (3-(2-(-4-(2-methoxyphenyl)piperazin-1-yl)ethyl)quinazolin-4(3H)-one and Compound (B) 3-(2-(4-(2-cyanophenyl)piperazin-1-yl)ethyl)quinazolin-4(3H)-one with known compounds that act by different mechanisms. The comparative compounds were alprazolam (benzodiazepine), paroxetine (ISRS-type antidepressant), venlafaxine (IRSN-type antidepressant) and agomelatine (antidepressant that acts on melatonin and serotonin 5-HT2C receptor). The following doses were employed in this study: Table 1: Tested compounds, concentrations and route of administration.
In this blind study, ten mice (RJ:NMRI, males) were employed per group. Clobazam (12 mg/Kg, i.p. route) was administered under the same study conditions as the reference compound. All compounds were administered 30 minutes before the test.
The test data of the response of substances were analyzed comparing the groups treated with the control vehicle using one-way ANOVA followed by post-hoc analysis of Dunnett's test. The data of the reference substance obtained were analyzed using unpaired Student's t test.

Mice [2] = test: Non-precipitated withdrawal test; conditions: mouse, in vivo, po
Source text: This test aims at assessing how the sudden cessation of the administration of a medicine can be associated with the occurrence of withdrawal identifiable symptoms. The types of symptoms examined are feed changes, weight gain, body temperature and the occurrence of one or behavioral symptoms and others, such as tremor, teeth chattering, wet dog body-shaking, diarrhea or piloerection. The triggering of these signs is a first sign that the substance induces dependence after repeated administration.
The method employed followed the procedure described by Goudie and Leathley (Psychopharmacology 1991, 103: 529-537).
Two mice per cage received two administrations per day (approximately 10:00 hours and 16:00 hours) of the test substance continuously during 19 days (day 1 to day 19), with the last administration occurring next to 10:00 hours of the 20th day. Control animals received the same number of administrations of vehicle. […] During the discontinuation phase, all animals received administration of vehicle once a day.
Additionally to the observations made after discontinuing the medicines, the same measures were taken at day 1 and day 10 of treatment, in addition to the 3 last days (days 18 to 20) immediately prior to administration of the dose in the morning to assess the effects of medicines before discontinuation. After discontinuation, the first observation was performed 24 hours after the last administration and, from then on, every 24 hours (days 21 to 28).
For daily measurements, the animals were evaluated with respect to behavioral changes during 5 minutes (two animals simultaneously observed). Then, their body weights and rectal temperatures were measured. Then, they received the proper treatment and were returned to their cages.
The leftover food in their supporters was weighed immediately after all animals return to their cages (only in the mornings), and food consumption in the previous 24 hours was determined.
The body weights, feed consumption and rectal temperatures were also measured 24 hours before the first administration, as reference values. The treated groups were homogenized with regard to body weights on the day preceding the first administration of the tested substances.
Compound (A) (3-(2-(-4-(2-methoxyphenyl)piperazin-1-yl)ethyl)quinazolin-4 (3H)-one) was evaluated in 3 doses (3, 10 and 30 mg/kg) administered orally (p.o.) and compared to the vehicle (control group).
Chlordiazepoxide (64 mg/kg, p.o.) was administered under the same experimental conditions, and was employed as reference substance in the test.
Paroxetine (15 and 30 mg/kg p.o.) was administered under the same experimental conditions and was used as comparative substance.
The test was blinded. Data were analyzed by comparing substances with their control vehicles employing one-way ANOVA with the group as a factor followed by post-hoc Dunnett tests. Data with the reference substance were analyzed using unpaired Student's t test.

[3] = dose given in Table 4 as (4), i.p.
[4] = dose given in Table 4 as (8), i.p.

Row | SMILES | Number of Hidden Spheres Compared to vehicle control % (Mice [1]; [3]) | Number of Hidden Spheres (mean ± mean standard error) (Mice [1]; [3]) | Number of Hidden Spheres Compared to vehicle control % (Mice [1]; [4]) | Number of Hidden Spheres (mean ± mean standard error) (Mice [1]; [4]) | number of hidden spheres (result in words) (Mice [1]; summary of Table 4 over the doses tested, i.p.) | Time spent in the clear compartment compared to vehicle % (mice (RJ:NMRI, males); 4 mg/Kg i.p.) | Time spent in the clear compartment (seconds) (mean ± mean standard error) (mice (RJ:NMRI, males); 4 mg/Kg i.p.) | Time spent in the clear compartment compared to vehicle % (mice (RJ:NMRI, males); 8 mg/Kg i.p.) | Time spent in the clear compartment (seconds) (mean ± mean standard error) (mice (RJ:NMRI, males); 8 mg/Kg i.p.) | Time spent in the clear compartment compared to vehicle % (mice (RJ:NMRI, males); 16 mg/Kg i.p.) | Time spent in the clear compartment (seconds) (mean ± mean standard error) (mice (RJ:NMRI, males); 16 mg/Kg i.p.) | permanence time in the clear compartment (result in words) (mice (RJ:NMRI, males); summary of Table 2 over the doses tested, i.p.) | withdrawal syndrome after an extended administration regimen (Mice [2]) | Number of Hidden Spheres Compared to vehicle control % (Mice [1]; 1.0 mg/kg i.p.) | Number of Hidden Spheres (mean ± mean standard error) (Mice [1]; 1.0 mg/kg i.p.) | amount of food consumed (Mice [2]; 30 mg/kg) | body weight and food consumption (Mice [2]; 30 mg/kg)
1 | COc1ccccc1N1CCN(CCn2cnc3ccccc3c2=O)CC1 [Compound (A), 3-(2-(-4-(2-methoxyphenyl)piperazin-1-yl)ethyl)quinazolin-4(3H)-one] | -82% | 3.5 ± 2.4 | -98% | 0.3 ± 0.3 | significantly reduced the number of hidden spheres | +8% | 79.6 ± 15.4 s | +111% | 155.1 ± 14.4 s | +93% | 141.7 ± 13.4 s | efficient in extending the permanence time in the clear compartment | does not induce withdrawal syndrome |  |  |  | 
2 | Fc1ccc([C@@H]2CCNC[C@H]2COc2ccc3c(c2)OCO3)cc1 [Paroxetine, paroxetine] |  |  |  |  |  | +15% | 84.6 ± 7.4 s | -6% | 69.3 ± 5.9 s | -13% | 63.8 ± 8.2 s |  | induces mild withdrawal syndrome | -56% | 8,4 ± 2,3 | significant increase in the amount of food consumed | significantly induced weight loss and reduction of food consumption
